Consider four compounds from US20130252987A1, “METHOD OF REGULATING PLASMA LIPOPROTEINS” (MCMASTER UNIVERSITY, priority 2010, published 2013).

In data set [1] the test system is HepG2 cells. The experiment in a line: apoB and apolipoprotein expression and secretion, immunoprecipitation and Western blot. The format is cell-based, human. Particulars: lactacystin 10 μM, 24 hours. On the procedure: During experiments in which HepG2 cells were treated with human recombinant resistin (Calbiochem, UK) the media was changed to 1% FBS-containing DMEM. […] In separate experiments, cells were treated with the fatty acid, oleate (100 μM) (Sigma, ON) for 24 hours, with or without human resistin (50 ng/mL) for 24 hours. In other experiments, cells were treated with the 10 μM lactacystin (Cayman Chemical, Ann Arbor, Mich.) for 24 hours to assess intracellular proteosome-dependent apoB protein degradation.
Horseradish peroxidase-conjugated antibodies (BioRad, Hercules, Calif.) were used as secondary antibodies.
All of the experiments to follow were performed three times and representative results are shown. […] Immunoprecipitation on cell lysates and media, followed by Western blots to detect the cellular expression and secretion of human apoB protein were then performed. The constitutively expressed cellular proteins, beta-actin and albumin were used as internal immunoblot controls to confirm equal protein loading in the apoB immunoblots of cell lysates and media, respectively. […] Treatment with 25 ng/mL resistin further stimulated apoB secretion by approximately 250% compared with untreated cells (FIG. 1A).

Data set [2] deals with HepG2 cells. The experiment in a line: cell viability, tryphan blue staining. The format is cell-based, human. Conditions: 1.3 nM. The method, then:
Cell viability was determined with 0.4% tryphan blue (Sigma-Aldrich, ON) staining and calculated using the following formula: % Cell Viability=(number of unstained (living) cells/Total number of cells)×100.
The next question was whether this amount of human resistin is toxic to hepatocytes. Tryphan blue staining of HepG2 cells upon 50 ng/mL of resistin treatment to determine cell viability was performed.

Data set [3] deals with HepG2 cells. The experiment in a line: real-time quantitative PCR of mRNA expression. In kind it is cell-based, human. Particulars: CP-346086 1.3 nM, 24 hours. On the procedure:
Total RNA was isolated from cell lysates (RNeasy Mini Kit, Qiagen, Germantown, Md.) and used as a template for cDNA synthesis (QuantiTech Reverse Transcription Kit, Qiagen, Germantown, Md.). Quantitative real-time PCR was performed using an Applied Biosystems 7300 Real Time PCR system (Carlsbad, Calif.) according to the manufacturer's instructions and with the SYBR green master kit (Qiagen, Germantown, Md.). Primers for the real-time PCR internal control gene cyclophilin A (sense, 5′-[…]-3′ (SEQ ID NO:3); antisense, 5′-[…]-3′ (SEQ ID NO:4)) were synthesized (IDT, Coralville, Iowa). Primers for succinate degydrogenase (SDH) (another real-time PCR internal control gene), apoB, microsomal triglyceride transfer protein (MTP), Srebp1, Srebp2, acetyl-coA carboxylase (ACC), HMG-coA reductase, HMG-coA synthase, squalene synthase (SS), the LDL receptor, PCSK9, fatty acid synthase (FAS), […] (SCD), DGAT1 and DGAT2 were purchased (proprietary sequences not available) (Qiagen, Germantown, Md.). The values reported for each mRNA were corrected to the cyclophilin A and SDH mRNA values.
Total RNA was isolated from cell lysates (RNeasy Mini Kit, Qiagen, MD) and used as a template for cDNA synthesis (QuantiTech Reverse Transcription Kit, Qiagen, MD). Quantitative real-time PCR was performed using an Applied Biosystems 7300 Real-Time PCR system (Carlsbad, Calif.) according to the manufacturer's instructions and with the SYBR green kit (Qiagen, MD). Primers for the real-time PCR internal control gene cyclophilin A, as identified in Example 1, were synthesized (IDT, IA). Primers for succinate dehydrogenase (SDH) (another real-time PCR internal control gene), SREBP2, HMG-CoA reductase, the LDL receptor and PCSK9 were purchased (proprietary sequences not available) (Qiagen, MD). The values reported for each mRNA were corrected to the cyclophilin A and SDH mRNA values.

Data set [4] deals with HepG2 cells. Description: immunoblotting for LDL receptor and PCSK9 in HepG2 cells.
Procedure: Cells were propagated in 10% FBS-containing DMEM supplemented with 1% penicillin-streptomycin and 0.06% L-glutamine (584 mg/L) at 37° C., 5% CO2. During treatment experiments with human recombinant resistin (Calbiochem, UK) and/or lovastatin (Sigma, Mo.), the media was changed to 1% FBS-containing DMEM. All of the experiments to follow were performed at least three times and representative results are shown. Cells were stimulated with resistin at various doses (0, 10, 25, 50, and 100 ng/mL) for 24 hours or with a single dose at 50 ng/mL resistin. In other experiments, the microsomal triglyceride transfer protein (MTP) inhibitor, CP-346086, was administered at 1.3 nM, either alone or together with resistin (50 ng/mL) for 24 hours. Lovastatin was administered at 1 to 5 μM for 24 hours to stimulate the cells, either alone or in combination with resistin (50 ng/mL). Unless otherwise indicated, all experiments were performed in triplicate in three independent experiments.
Cell lysates collected with RIPA buffer (50 mM Tris, 150 mM sodium chloride, 1% NP-40, 12 mM sodium deoxycholate, 3.5 mM SDS, pH 7.4) and protease inhibitor cocktail (Roche Diagnostics, QC) were analyzed for human LDL receptor and PCSK9 as previously described (Rashid et al. Proc Nall Acad Sci U S A 2005; 102:5374-9). Equivalent amounts of total protein, determined by Bradford reaction was subjected to sodium dodecyl sulfate polyacrylamide gel electrophoresis (SDS-PAGE), transferred onto nitrocellulose membranes (BioRad, CA) and immunoblotted using antibodies against the LDL receptor (Fitzgerald International, CA) and PCSK9 (Cayman Chemicals, MI). Horseradish peroxidase-conjugated antibodies (BioRad, CA) were used as secondary antibodies. Immunoreactive bands were visualized with a chemiluminescence kit (PerkinElmer Life Sciences, MA). The blots were exposed to KODAK Biomax films, and the signal was quantified by densitometry using Quantity One version 4.6.7. software (Bio Rad, CA).
All of the experiments were performed at least three times and representative results are shown. Dose-response experiments were performed in HepG2 cells with 0, 10, 25, 50, 75 and 100 ng/mL of human resistin for 24 hours. Western blots were then performed on cell lysates to detect the cellular expression of LDL receptor protein.
Data set [5] has as its system RETN (human resistin gene). The experiment in a line: resistin siRNA transfection of HepG2 cells. Particulars: 10 nM siRNA, 24 or 48 hours. The format is cell-based. The method, then: HepG2 cells were seeded 200,000 cells per well in a 6-well plate in 2300 uL of 10% FBS DMEM with antibiotics. Awaiting transfection, the cells were placed at 37° C. and 5% CO2. Next, 300 ng of siRNA against RETN (human resistin gene), with the sequence 5′[…] (SEQ ID NO: 5), purchased from Qiagen, MD, was diluted in 100 uL of serum free DMEM which yielded a final concentration of 10 nM once added to cells. 12 uL of HiPerfect Transfection reagent (Qiagen) was also added to the siRNA and mixed by pipetting. The siRNA mixture was allowed to form transfection complexes by incubation at room temperature for 7 minutes. The complexes were then added drop wise to the cells and incubated at 37° C. and 5% CO2 for 24 or 48 hours before harvest. Transfection efficiency was quantitatively measured by the fluorescently labeled scrambled negative control siRNA (Qiagen). siRNA knockdown efficiency was measured by positive control siGAPDH (Qigen) at the transcript and protein levels.

Where [6] appears, read: CP-346086 1.3 nM with resistin 50 ng/mL, 24 hours.

As to `CC(=O)N[C@@H](CSC(=O)[C@]1([C@@H](O)C(C)C)NC(=O)[C@H](C)[C@@H]1O)C(=O)O` [lactacystin, reference compound], the “cellular expression and secretion of apoB” value in the data set with HepG2 cells [1] is “increase”.

For the compound `O=C(Nc1ccc2c(c1)CCN(Cc1ncn[nH]1)C2)c1ccccc1-c1ccc(C(F)(F)F)cc1` [CP-346086, reference compound], in the data set on HepG2 cells [2], the cell viability result is reported as “did not reduce cell viability”. Also, in the data set with HepG2 cells [3], the “HMG-coA reductase mRNA expression” value was “reduction” and the “SREBP2 mRNA expression” value is “reduction”. Also, in the data set with HepG2 cells [4] (setting [6]), the “effect on LDL receptor protein levels observed with resistin treatment” value is given as “reversed the decline” and the “effect on PCSK9 protein levels induced by resistin” value is on record as “reversed the increase”.

In the case of “Resistin siRNA: siRNA against RETN (human resistin gene), sequence 5′CCCTAATATTTAGGGCAATAA (SEQ ID NO: 5), Qiagen (listed as DNA, chemistry not given here)”, in data set [5], the “cellular LDL receptor levels” value is “very effective in increasing”, the “cellular PCSK9 levels” value is recorded as “reduction”, the “cellular protein levels of resistin” value is “very effective in reducing” and the “expression of apoB” value is “reducing the expression”.

As to `CC[C@H](C)C(=O)O[C@H]1C[C@@H](C)C=C2C=C[C@H](C)[C@H](CC[C@@H]3C[C@@H](O)CC(=O)O3)[C@H]21` [lovastatin, reference compound], in the data set on HepG2 cells [4] (lovastatin 5 μM), the “hepatocyte LDL receptor expression” value is on record as “increase”.
